The results in this text go back to patent publication US20260240878A1, “PTP1B/TC-PTP DUAL INHIBITORS AND PROTEIN DEGRADERS” (Purdue Research Foundation, priority 2023, published 2026).

As a reminder, the IC50 is the concentration that inhibits the measured activity by half.

*1 amine or outer side, *2 acyl side, *3 side chain or, on linkers, in order; H or OH if unused. Where a SMILES comes first, the peptide text is derived from it. [ ]: non-standard residue; d: D form. The star is where a group is joined. NHBn(4-(4-Me-thiazol-5-yl)) = Cc1ncsc1-c1ccc(CN*)cc1; F2Pmp = N[C@@H](Cc1ccc(C(F)(F)P(=O)(O)O)cc1)C(=O)O; Phenylacetyl(4-OH,3-OMe) = COc1cc(CC(=O)*)ccc1O; Benzoyl(3-Br,4-Me) = Cc1ccc(C(=O)*)cc1Br; NH(CH2)9CO = O=C(CCCCCCCCCN[*:1])[*:2]; Hyp = O=C(O)[C@@H]1C[C@@H](O)CN1; dHyp = O=C(O)[C@H]1C[C@H](O)CN1; dTle = CC(C)(C)[C@@H](N)C(=O)O; Tle = CC(C)(C)[C@H](N)C(=O)O; 12Ado = NCCCCCCCCCCCC(=O)O; Aoc = NCCCCCCCC(=O)O; Ahp = NCCCCCCC(=O)O; Ahx = NCCCCCC(=O)O

In assay [1] the target is T1, TC-PTP (Homo sapiens, UniProt P17706).
T1 sequence (P17706 1-415): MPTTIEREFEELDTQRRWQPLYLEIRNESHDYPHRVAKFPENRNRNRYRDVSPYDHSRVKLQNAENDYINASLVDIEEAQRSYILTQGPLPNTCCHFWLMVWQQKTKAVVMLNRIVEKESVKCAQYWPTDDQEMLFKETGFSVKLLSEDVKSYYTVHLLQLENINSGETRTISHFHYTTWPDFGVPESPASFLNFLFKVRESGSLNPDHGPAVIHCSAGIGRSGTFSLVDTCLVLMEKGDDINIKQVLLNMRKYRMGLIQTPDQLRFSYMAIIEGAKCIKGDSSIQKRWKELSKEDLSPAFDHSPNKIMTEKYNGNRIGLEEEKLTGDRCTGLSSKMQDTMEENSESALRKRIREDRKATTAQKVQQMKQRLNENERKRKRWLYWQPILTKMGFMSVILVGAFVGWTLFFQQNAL
Nature of the assay: PTP activity assay with pNPP substrate (IC50, Ki, mode of inhibition). As to conditions: pNPP 2 mM, pH 7.0, 25° C.; read-out: IC50, nM TC-PTP. The format is biochemical. Put shortly:
(§1)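 Hydrolysis of pNPP measured spectrophotometrically in pH 7.0 DMG buffer (EDTA, NaCl, DTT, BSA) at 25 °C, 0.4 nM enzyme. IC50 at 2 mM pNPP (Km) over an inhibitor titration; mode of inhibition and Ki from rates across varied pNPP and inhibitor levels, fitted to enzyme kinetic models.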

Assay [2] has as its target T2, PTP1B (Homo sapiens, UniProt P18031).
T2 sequence (P18031 1-435): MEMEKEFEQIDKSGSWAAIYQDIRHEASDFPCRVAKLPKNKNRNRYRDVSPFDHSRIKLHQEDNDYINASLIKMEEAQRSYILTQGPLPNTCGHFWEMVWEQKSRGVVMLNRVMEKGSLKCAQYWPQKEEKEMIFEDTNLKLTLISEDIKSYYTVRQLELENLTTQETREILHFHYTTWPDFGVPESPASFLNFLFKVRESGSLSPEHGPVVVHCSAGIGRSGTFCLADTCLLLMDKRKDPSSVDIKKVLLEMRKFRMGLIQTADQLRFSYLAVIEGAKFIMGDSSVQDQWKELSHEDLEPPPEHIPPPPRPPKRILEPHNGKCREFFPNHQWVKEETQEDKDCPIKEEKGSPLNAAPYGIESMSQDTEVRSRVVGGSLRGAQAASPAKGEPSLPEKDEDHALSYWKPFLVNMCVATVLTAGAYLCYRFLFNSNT
Described as above. The format is biochemical. Conditions: pNPP 2 mM, pH 7.0, 25° C.; read-out: IC50, nM PTP1B. The procedure, abridged: as §1

The target of assay [3] is T1, TC-PTP. Put plainly: Degradation assay in HEK293 cells (immunoblotting). The format is cell-based. The arrangement: Degradation assay was conducted in HEK293 cells with 1 μM degrader and 24 hours incubation; endogenous in cells; host or cells: HEK293. Conditions: 1 μM degrader, 24 hours, read-out: % Protein Degradation TC-PTP. The method, then:
(§2) HEK293. MIAPaCa-2, HepG2, U2OS, H116, MEF, B16F10, and MC38 cells, were grown in DMEM, while Jurkat and H358 cells were grown in RPMI 1640 supplemented with 10% fetal bovine serum, penicillin (50 units/mL), and streptomycin (50 μg/mL) in a 37° C. incubator containing 5% CO2. 20 ng/ml human (Biolegend #713906) or mouse (Biolegend #714006) Interferon-γ were used for JAK/STAT pathway stimulation.
(§3) Tissues or cultured cells were lysed with ice-cold lysis buffer (50 mM Tris (pH 8.0, 150 mM NaCl, 10% Glycerol, 1% Triton-X-100) supplied with phosphatase inhibitor (Bimake) and protease inhibitor mixture (Roche Applied Science). Equal amounts of protein were resolved by SDS-PAGE, transferred to nitrocellulose membrane, and subjected to immunoblotting. Antibodies used in this study include anti-following proteins: pSTAT1^Tyr701 (Cell Signaling Technology #9167, 1:3000), GAPDH (Cell Signaling Technology #97166, 1:5000), pJAK1^Tyr1034/1035 (Cell Signaling Technology #74129, 1:1000), pJAK2^Tyr1007/1008 (Cell Signaling Technology #3776, 1:1000), TC-PTP (Abcam #ab180764, 1:3000). PTP1B (Abcam #ab244207, 1:1500).
(§4) Degradation assay was conducted in HEK293 cells with 1 μM degrader and 24 hours incubation.
(§5) The degradation assay was conducted in HEK293 cells with 0.2 μM degrader and 16 hours incubation.
(In western blotting, separated proteins are transferred to a membrane and probed.)

Assay [4] concerns the target T2, PTP1B. Put plainly: Degradation assay in HEK293 cells (immunoblotting). It counts as cell-based. Set-up: Degradation assay was conducted in HEK293 cells with 1 μM degrader and 24 hours incubation; endogenous in cells; host or cells: HEK293. As to conditions: 1 μM degrader, 24 hours. The method, then:
as §2, §3, §4, §5

The target of assay [5] is T1, TC-PTP. Nature of the assay: Degradation assay in HEK293 cells (immunoblotting). It counts as cell-based. Set-up: endogenous in cells; host or cells: HEK293. As to conditions: 0.2 μM degrader, 16 hours, read-out: % Protein Degradation TC-PTP.
Assay [6] addresses T2, PTP1B. Nature of the assay: Degradation assay in HEK293 cells (immunoblotting). The arrangement: endogenous in cells; host or cells: HEK293. The format is cell-based. Conditions: 0.2 μM degrader, 16 hours.

On to `COc1cc(CC(=O)N[C@@H](Cc2ccccc2)C(=O)N[C@@H](Cc2ccc(C(F)(F)P(=O)(O)O)cc2)C(=O)N[C@@H](CCCCNC(=O)c2ccc(C)c(Br)c2)C(=O)NCCCCCC(=O)N[C@H](C(=O)N2C[C@H](O)C[C@H]2C(=O)NCc2ccc(-c3scnc3C)cc2)C(C)(C)C)ccc1O` [Compound 8, ((4-((S)-3-(((S)-6-(3-bromo-4-methylbenzamido)-1-((6-(((S)-1-((2S,4R)-4-hydroxy-2-((4-(4-methylthiazol-5-yl)benzyl)carbamoyl)pyrrolidin-1-yl)-3,3-dimethyl-1-oxobutan-2-yl)amino)-6-oxohexyl)amino)-1-oxohexan-2-yl)amino)-2-((S)-2-(2-(4-hydroxy-3-methoxyphenyl)acetamido)-3-phenylpropanamido)-3-oxopropyl)phenyl)difluoromethyl)phosphonic Acid] ({Phenylacetyl(4-OH,3-OMe)}-F[F2Pmp]K(Benzoyl(3-Br,4-Me))[Ahx][Tle][Hyp]-{NHBn(4-(4-Me-thiazol-5-yl))}), for which the IC50 at TC-PTP [1] stood at 12.8 ± 3.7 nM; at PTP1B [2], 16.7 ± 0.9 nM. Further, the percent TC-PTP degradation at 1 µM on TC-PTP [3] was found to be 83%. Also, the “% Protein Degradation PTP1B” value at PTP1B [4] stood at 81%; on PTP1B [6], 61%. For the same molecule, the percent TC-PTP degradation at 0.2 µM on TC-PTP [5] was 58%.

As to `COc1cc(CC(=O)N[C@@H](Cc2ccccc2)C(=O)N[C@@H](Cc2ccc(C(F)(F)P(=O)(O)O)cc2)C(=O)N[C@@H](CCCCNC(=O)c2ccc(C)c(Br)c2)C(=O)NCCCCCCC(=O)N[C@@H](C(=O)N2C[C@@H](O)C[C@@H]2C(=O)NCc2ccc(-c3scnc3C)cc2)C(C)(C)C)ccc1O` [Compound 10, ((4-((S)-3-(((S)-6-(3-bromo-4-methylbenzamido)-1-((7-(((R)-1-((2R,4S)-4-hydroxy-2-((4-(4-methylthiazol-5-yl)benzyl)carbamoyl)pyrrolidin-1-yl)-3,3-dimethyl-1-oxobutan-2-yl)amino)-7-oxoheptyl)amino)-1-oxohexan-2-yl)amino)-2-((S)-2-(2-(4-hydroxy-3-methoxyphenyl)acetamido)-3-phenylpropanamido)-3-oxopropyl)phenyl)difluoromethyl)phosphonic Acid] ({Phenylacetyl(4-OH,3-OMe)}-F[F2Pmp]K(Benzoyl(3-Br,4-Me))[Ahp][dTle][dHyp]-{NHBn(4-(4-Me-thiazol-5-yl))}), the half-inhibitory concentration (IC50) at TC-PTP [1] came to 6.8 ± 0.6 nM; on PTP1B [2] it was 7.4 ± 0.6 nM. Moreover, the percent TC-PTP degradation at 1 µM at TC-PTP [3] is 69%. At PTP1B [4], the “% Protein Degradation PTP1B” value is given as 61%.

`COc1cc(CC(=O)N[C@@H](Cc2ccccc2)C(=O)N[C@@H](Cc2ccc(C(F)(F)P(=O)(O)O)cc2)C(=O)N[C@@H](CCCCNC(=O)c2ccc(C)c(Br)c2)C(=O)NCCCCCCCCCC(=O)N[C@H](C(=O)N2C[C@H](O)C[C@H]2C(=O)NCc2ccc(-c3scnc3C)cc2)C(C)(C)C)ccc1O` [Compound 14, ((4-((S)-3-(((S)-6-(3-bromo-4-methylbenzamido)-1-((10-(((S)-1-((2S,4R)-4-hydroxy-2-((4-(4-methylthiazol-5-yl)benzyl)carbamoyl)pyrrolidin-1-yl)-3,3-dimethyl-1-oxobutan-2-yl)amino)-10-oxodecyl)amino)-1-oxohexan-2-yl)amino)-2-((S)-2-(2-(4-hydroxy-3-methoxyphenyl)acetamido)-3-phenylpropanamido)-3-oxopropyl)phenyl)difluoromethyl)phosphonic Acid] ({Phenylacetyl(4-OH,3-OMe)}-F[F2Pmp]K(Benzoyl(3-Br,4-Me))[NH(CH2)9CO][Tle][Hyp]-{NHBn(4-(4-Me-thiazol-5-yl))}): the IC50 on TC-PTP [1] was determined as 6.8 ± 0.3 nM; at PTP1B [2] it was 10.3 ± 0.6 nM. Also, the percent TC-PTP degradation at 1 µM on TC-PTP [3] worked out at 62%. Also, the “% Protein Degradation PTP1B” value on PTP1B [4] was determined as 38%.

For the molecule `COc1cc(CC(=O)N[C@@H](Cc2ccccc2)C(=O)N[C@@H](Cc2ccc(C(F)(F)P(=O)(O)O)cc2)C(=O)N[C@@H](CCCCNC(=O)c2ccc(C)c(Br)c2)C(=O)NCCCCCCCCCCCC(=O)N[C@H](C(=O)N2C[C@H](O)C[C@H]2C(=O)NCc2ccc(-c3scnc3C)cc2)C(C)(C)C)ccc1O` [Compound 18, ((4-((S)-3-(((S)-6-(3-bromo-4-methylbenzamido)-1-((12-(((S)-1-((2S,4R)-4-hydroxy-2-((4-(4-methylthiazol-5-yl)benzyl)carbamoyl)pyrrolidin-1-yl)-3,3-dimethyl-1-oxobutan-2-yl)amino)-12-oxododecyl)amino)-1-oxohexan-2-yl)amino)-2-((S)-2-(2-(4-hydroxy-3-methoxyphenyl)acetamido)-3-phenylpropanamido)-3-oxopropyl)phenyl)difluoromethyl)phosphonic Acid] ({Phenylacetyl(4-OH,3-OMe)}-F[F2Pmp]K(Benzoyl(3-Br,4-Me))[12Ado][Tle][Hyp]-{NHBn(4-(4-Me-thiazol-5-yl))}), the IC50 was determined as 8.9 ± 0.6 nM at TC-PTP [1] and 22.3 ± 1.1 nM at PTP1B [2]. Further, the percent TC-PTP degradation at 1 µM on TC-PTP [3] was determined as 30%. Besides, at PTP1B [4], the “% Protein Degradation PTP1B” value came to 29%.

Consider `COc1cc(CC(=O)N[C@@H](Cc2ccccc2)C(=O)N[C@@H](Cc2ccc(C(F)(F)P(=O)(O)O)cc2)C(=O)N[C@@H](CCCCNC(=O)c2ccc(C)c(Br)c2)C(=O)NCCCCCCCC(=O)N[C@@H](C(=O)N2C[C@@H](O)C[C@@H]2C(=O)NCc2ccc(-c3scnc3C)cc2)C(C)(C)C)ccc1O` [Compound 83, ((4-((S)-3-(((S)-6-(3-bromo-4-methylbenzamido)-1-((8-(((R)-1-((2R,4S)-4-hydroxy-2-((4-(4-methylthiazol-5-yl)benzyl)carbamoyl)pyrrolidin-1-yl)-3,3-dimethyl-1-oxobutan-2-yl)amino)-8-oxooctyl)amino)-1-oxohexan-2-yl)amino)-2-((S)-2-(2-(4-hydroxy-3-methoxyphenyl)acetamido)-3-phenylpropanamido)-3-oxopropyl)phenyl)difluoromethyl)phosphonic Acid] ({Phenylacetyl(4-OH,3-OMe)}-F[F2Pmp]K(Benzoyl(3-Br,4-Me))[Aoc][dTle][dHyp]-{NHBn(4-(4-Me-thiazol-5-yl))}), for which the values for the IC50 on TC-PTP [1] and at PTP1B [2] were 10.6 ± 0.3 nM and 19 ± 1.9 nM, respectively. For the same molecule, on TC-PTP [3], the percent TC-PTP degradation at 1 µM worked out at 66%. Besides, on PTP1B [4], the “% Protein Degradation PTP1B” value is reported as 58%.
